In US20250213587A1, “ITK INHIBITORS FOR INCREASING TH1 CELL ACTIVITY” (Corvus Pharmaceuticals, Inc., priority 2022, published 2025):

Assays:
[1] = tested on: ERK phosphorylation; experiment: pERK flow cytometry after CD3/28 crosslinking; assay type: cell-based; conditions: Homo sapiens, mean of three donors
Description: PBMCs were pelleted (400×g at 4° C. for 5 minutes) and resuspended in RPMI+10% heat-inactivated fetal bovine serum (FBS) at 14.3×10^6 cells/mL; 70 μL (1×10^6 cells) were plated in a 96 well U bottom plate and incubated at 37° C. for 1 hour. […] CD3-biotin and CD28-biotin were prepared together at 10 μg/mL each, which is 10× the final concentration; 10 μL antibodies were added to the cells and incubated at 37° C. for 15 minutes. Avidin was prepared at 500 μg/mL, which is 10× the final concentration; 10 μL avidin were added to the cells and incubated at 37° C. for 5 minutes to induce TCR crosslinking. A total volume of 100 μL cells were transferred to 200 μL warm 2.4% paraformaldehyde (PFA) in deep well blocks. Pipetting was performed using a liquidator 96 to add reagents to the entire plate with uniform timing. Cells were fixed with PFA at 37° C. for 10 minutes. Cells were pelleted (1000× g for 5 minutes), and the plate was aspirated leaving approximately 100 μL residual volume. The plate was then vigorously vortexed for 10 seconds, and 1 mL −20° C. methanol was added to each well. Cells were stored at […] for approximately 1 month. […] Inhibition was measured by construction of a concentration response curve of the Log base 10 transformed values of the molar concentration of inhibitor. […]

[2] = tested on: human T cells (PBMC); experiment: T cell activation, Th1 skewing, cell number and viability; assay type: cell-based
Description: Fresh PBMCs from healthy human donors were centrifuged and reconstituted at 0.312×10^6 cells/mL in RPMI 1640 medium+10% heat-inactivated FBS+1× penicillin streptomycin and 100,000 cells/well were distributed into 24 well tissue culture plate. Cells were incubated at 37° C. for 1 hour, followed by the addition of CPI 596 or vehicle. The cells were then incubated at 37° C. for 1 hour, followed by the addition of […] anti CD3 and anti CD28 (both eBioscience). Cells were incubated at 37° C. for 6 days, with supplemental media supplied on day 3. On Day 6, the cells were transferred to a 96 deep well plate, washed, and treated with 50 nM phorbol 12-myristate 13-acetate, 1 μg/mL ionomycin, and 1 μg/mL brefeldin A, and then incubated at 37° C. for 4 hours. The cells were then fixed and permeabilized using eBioscience Fox3/transcription factor staining buffer. Cells were treated with Fc block (BioLegend) and then stained with CD3 BV605, CD45RA PerCP-Cy5.5, Tbet PE, IFNγ AF488, IL-4 APC (BioLegend), CD4 PE-Cy7, cPARP AF700 (BD Biosciences), and CD8 Krome Orange (Beckman Coulter). For flow cytometry, 300,000 cells were acquired on Cytoflex (Beckman Coulter). Data were analyzed using Flowjo software. The percentage of CD4^+ T cells that were positive for IFNγ and IL 4 were reported.

[3] = biological target: ZAP-70 (Homo sapiens, UniProt P43403); experiment: Human kinome profiling at 1.0 μM, ZAP-70; assay type: biochemical; conditions: read-out: percent control, ZAP-70
[4] = tested on: human CD4 T cells; experiment: T cell exhaustion markers; assay type: cell-based

Sequence of ZAP-70 (P43403 whole entry): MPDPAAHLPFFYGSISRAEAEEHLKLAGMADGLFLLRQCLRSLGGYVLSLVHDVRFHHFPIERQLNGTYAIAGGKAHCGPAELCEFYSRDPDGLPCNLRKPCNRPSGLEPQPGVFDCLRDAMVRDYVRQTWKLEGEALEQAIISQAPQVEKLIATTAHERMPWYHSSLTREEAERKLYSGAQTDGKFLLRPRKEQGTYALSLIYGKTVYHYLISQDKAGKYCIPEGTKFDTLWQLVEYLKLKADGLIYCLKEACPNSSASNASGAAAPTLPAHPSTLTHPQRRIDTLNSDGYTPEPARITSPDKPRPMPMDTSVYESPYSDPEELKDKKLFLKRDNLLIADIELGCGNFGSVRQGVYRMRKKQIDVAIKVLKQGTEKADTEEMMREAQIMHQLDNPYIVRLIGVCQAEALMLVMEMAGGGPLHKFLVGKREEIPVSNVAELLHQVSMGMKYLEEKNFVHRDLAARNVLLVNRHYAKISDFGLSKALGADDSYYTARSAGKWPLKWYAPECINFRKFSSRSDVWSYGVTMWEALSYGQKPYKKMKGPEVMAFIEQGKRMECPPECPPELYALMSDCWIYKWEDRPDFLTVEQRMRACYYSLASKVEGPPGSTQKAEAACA

- IC50 [1]: 39 nM
- remaining activity at 1 µM [3]: 59%
Structure (SMILES): C=CC(=O)N1CCCN(C(=O)c2cc(Sc3cnc(NC(=O)C4CC4)s3)c(C)cc2OC)C[C@H]1C [CPI-818]
- total T cell proliferation ([2]; 10 μM): abrogates total T cell proliferation
- total number of cells and cell viability ([2]; ≥1 μM / high concentrations): reduced the total number of cells while maintaining cell viability
- T cell exhaustion: granzyme B and IFNγ levels [4]: reverses T cell exhaustion
- LAG3, TIGIT and PD-1 ([4]; various concentrations): downregulate biomarkers of T cell exhaustion
